From PubChem BioAssay AID248 (DTP/NCI, 2004)
“And” between values parts separate entries of the source, which are not always exact repeats. Equal entries are not always repeated. Toxic doses and inconclusive results are not listed.

Test system: L1210 leukemia ip in BDF1 mice, survival T/C
Test: NCI In Vivo Anticancer Drug Screen. Data for tumor model L1210 Leukemia (intraperitoneal) in B6D2F1 (BDF1) mice
Settings: endpoint: mean survival time, higher = longer survival
Procedure, shortened: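 Value reflects the ratio of survival in compound-treated mice to survival in vehicle-treated controls, with both groups carrying the same transplanted tumor.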

[1] = dose: 6.25 mg/kg/injection, schedule: Q04DX003 (ip), vehicle: saline with Tween-80
[2] = dose: 12.5 mg/kg/injection, schedule: Q04DX003 (ip), vehicle: saline with Tween-80
[3] = dose: 25.0 mg/kg/injection, schedule: Q04DX003 (ip), vehicle: saline with Tween-80
[4] = dose: 100.0 mg/kg/injection, schedule: Q04DX002 (ip), vehicle: Klucel (hydroxypropylcellulose) (HPC)
[5] = dose: 200.0 mg/kg/injection, schedule: Q04DX002 (ip), vehicle: Klucel (hydroxypropylcellulose) (HPC)
[6] = dose: 100.0 mg/kg/injection, schedule: Q04DX003 (ip), vehicle: saline
[7] = dose: 200.0 mg/kg/injection, schedule: Q04DX003 (ip), vehicle: saline
[8] = dose: 100.0 mg/kg/injection, schedule: Q01DX001 (ip), vehicle: Klucel (hydroxypropylcellulose) (HPC)
[9] = dose: 200.0 mg/kg/injection, schedule: Q01DX001 (ip), vehicle: Klucel (hydroxypropylcellulose) (HPC)
[10] = dose: 400.0 mg/kg/injection, schedule: Q04DX003 (ip), vehicle: saline

`CCOc1ccccc1C1N(C)CCCN1C` was tested, and the T/C [1] was 99 % of control, the T/C [2] was 100 % of control and the T/C [3] was 99 % of control.
In the case of `C#CCNc1ccccc1`, the T/C (dose: 100.0 mg/kg/injection, schedule: Q04DX002 (sc), vehicle: olive oil, sesame oil, peanut oil) is reported as 102 % of control, the T/C (dose: 200.0 mg/kg/injection, schedule: Q04DX002 (sc), vehicle: olive oil, sesame oil, peanut oil) is reported as 102 % of control and the T/C (dose: 400.0 mg/kg/injection, schedule: Q04DX002 (sc), vehicle: olive oil, sesame oil, peanut oil) is reported as 109 % of control.
For `NC(=O)COc1ccc2ccccc2c1Cl`, the T/C [4] was 96 % of control and the T/C [5] was 89 % of control.
`Nc1ncnc(N)c1NC(=O)c1cccc(Br)c1` was tested, and the T/C [1] was 96 % of control, the T/C [2] was 96 % of control and the T/C [3] was 100 % of control and 103 % of control.
For `CCn1c(=O)oc2ccccc2c1=S`, the T/C [6] was 100 % of control and the T/C [7] was 96 % of control.
`COc1cc(CCN(C)C)cc(OC)c1OC` was tested, and the T/C (dose: 75.0 mg/kg/injection, schedule: Q01DX001 (ip), vehicle: saline) was 95 % of control, the T/C (dose: 150.0 mg/kg/injection, schedule: Q01DX001 (ip), vehicle: saline) was 101 % of control and the T/C (dose: 300.0 mg/kg/injection, schedule: Q01DX001 (ip), vehicle: saline) was 102 % of control.
`O=C1/C(=C2\CCCc3ccc(Cl)cc32)CCc2ccc(Cl)cc21` was tested, and the T/C (dose: 100.0 mg/kg/injection, schedule: Q01DX009 (ip), vehicle: saline with Tween-80) was 100 % of control, the T/C (dose: 200.0 mg/kg/injection, schedule: Q01DX009 (ip), vehicle: saline with Tween-80) was 97 % of control and the T/C (dose: 400.0 mg/kg/injection, schedule: Q01DX009 (ip), vehicle: saline with Tween-80) was 96 % of control.
In the case of `O=C1OC(=O)c2ccc([N+](=O)[O-])c3c(C(=O)O)ccc1c23`, the T/C (dose: 50.0 mg/kg/injection, schedule: Q01DX001 (ip), vehicle: saline) is reported as 101 % of control, the T/C (dose: 100.0 mg/kg/injection, schedule: Q01DX001 (ip), vehicle: saline) is reported as 104 % of control and the T/C (dose: 200.0 mg/kg/injection, schedule: Q01DX001 (ip), vehicle: saline) is reported as 104 % of control. For the same compound, the T/C (dose: 400.0 mg/kg/injection, schedule: Q01DX001 (ip), vehicle: saline) was 104 % of control.
With `O=C(Nc1cc(C(F)(F)F)ccc1Cl)c1ccc(Cl)cc1Cl` the T/C (dose: 100.0 mg/kg/injection, schedule: Q01DX009 (sc), vehicle: olive oil, sesame oil, peanut oil) was 104 % of control, the T/C (dose: 100.0 mg/kg/injection, schedule: Q04DX003 (sc), vehicle: olive oil, sesame oil, peanut oil) was 106 % of control and the T/C (dose: 200.0 mg/kg/injection, schedule: Q01DX009 (sc), vehicle: olive oil, sesame oil, peanut oil) was 113 % of control. For the same compound, the T/C (dose: 200.0 mg/kg/injection, schedule: Q04DX003 (sc), vehicle: olive oil, sesame oil, peanut oil) was 101 % of control, the T/C (dose: 400.0 mg/kg/injection, schedule: Q01DX009 (sc), vehicle: olive oil, sesame oil, peanut oil) was 107 % of control and the T/C (dose: 400.0 mg/kg/injection, schedule: Q04DX003 (sc), vehicle: olive oil, sesame oil, peanut oil) was 101 % of control.
In the case of `Clc1ccc2nsnc2c1`, the T/C [8] is reported as 105 % of control and the T/C [9] is reported as 114 % of control.
For `COC(=O)c1cc(C2OCC3OC(C)(C)OC32)[nH]n1` (centres undefined), the T/C (dose: 100.0 mg/kg/injection, schedule: Q01DX005 (ip), vehicle: saline) was 96 % of control and the T/C (dose: 200.0 mg/kg/injection, schedule: Q01DX005 (ip), vehicle: saline) was 100 % of control.
`COC1(OC)C2(Cl)C=CC1(Cl)C1CC12` (centres undefined) was tested, and the T/C [4] was 97 % of control, the T/C [5] was 107 % of control and the T/C (dose: 400.0 mg/kg/injection, schedule: Q04DX002 (ip), vehicle: Klucel (hydroxypropylcellulose) (HPC)) was 100 % of control.
With `O=C(C[n+]1cccc(OC(=O)c2ccccc2)c1)c1ccc(-c2ccccc2)cc1` the T/C (dose: 75.0 mg/kg/injection, schedule: Q04DX003 (ip), vehicle: Klucel (hydroxypropylcellulose) (HPC)) was 100 % of control, the T/C [8] was 100 % of control and the T/C (dose: 150.0 mg/kg/injection, schedule: Q04DX003 (ip), vehicle: Klucel (hydroxypropylcellulose) (HPC)) was 91 % of control. The T/C [9] was 97 % of control, the T/C (dose: 300.0 mg/kg/injection, schedule: Q04DX003 (ip), vehicle: Klucel (hydroxypropylcellulose) (HPC)) was 96 % of control and the T/C (dose: 400.0 mg/kg/injection, schedule: Q01DX001 (ip), vehicle: Klucel (hydroxypropylcellulose) (HPC)) was 101 % of control.
For `CCN(CC)c1ccc(/C=C/c2ccncc2)cc1`, the T/C (dose: 100.0 mg/kg/injection, schedule: Q01DX009 (ip), vehicle: Klucel (hydroxypropylcellulose) (HPC)) was 93 % of control, the T/C (dose: 100.0 mg/kg/injection, schedule: Q04DX003 (ip), vehicle: Klucel (hydroxypropylcellulose) (HPC)) was 104 % of control and the T/C (dose: 200.0 mg/kg/injection, schedule: Q01DX009 (ip), vehicle: Klucel (hydroxypropylcellulose) (HPC)) was 92 % of control. The T/C (dose: 200.0 mg/kg/injection, schedule: Q04DX003 (ip), vehicle: Klucel (hydroxypropylcellulose) (HPC)) was 96 % of control, the T/C (dose: 400.0 mg/kg/injection, schedule: Q01DX009 (ip), vehicle: Klucel (hydroxypropylcellulose) (HPC)) was 90 % of control and the T/C (dose: 400.0 mg/kg/injection, schedule: Q04DX003 (ip), vehicle: Klucel (hydroxypropylcellulose) (HPC)) was 93 % of control.
`CCN(CC)C(N)=O` was tested, and the T/C (dose: 100.0 mg/kg/injection, schedule: Q01DX009 (ip), vehicle: saline) was 92 % of control, the T/C [6] was 102 % of control and the T/C (dose: 200.0 mg/kg/injection, schedule: Q01DX009 (ip), vehicle: saline) was 118 % of control. For the same compound, the T/C [7] was 107 % of control, the T/C (dose: 400.0 mg/kg/injection, schedule: Q01DX009 (ip), vehicle: saline) was 101 % of control and the T/C [10] was 107 % of control.
In the case of `Brc1cc(Cc2c(Br)csc2Br)c(Br)s1`, the T/C (dose: 100.0 mg/kg/injection, schedule: Q04DX002 (ip), vehicle: saline with Tween-80) is reported as 101 % of control, the T/C (dose: 200.0 mg/kg/injection, schedule: Q04DX002 (ip), vehicle: saline with Tween-80) is reported as 101 % of control and the T/C (dose: 400.0 mg/kg/injection, schedule: Q04DX002 (ip), vehicle: saline with Tween-80) is reported as 101 % of control.
With `CCOC(=O)C1CCCNC1=O` (centres undefined) the T/C [6] was 105 % of control, the T/C [7] was 116 % of control and the T/C [10] was 108 % of control.
With `CN=C(N)c1ccc(N=C(N)c2ccc(N=C(N)c3ccc(NC(=O)Nc4cccc(NC(=O)Nc5ccc(C(N)=Nc6ccc(C(N)=Nc7ccc(C(N)=NC)cc7)cc6)cc5)c4)cc3)cc2)cc1` the T/C (dose: 0.25 mg/kg/injection, schedule: Q01DX015 (ip), vehicle: water) was 109 % of control, the T/C (dose: 0.5 mg/kg/injection, schedule: Q01DX015 (ip), vehicle: water) was 113 % of control and the T/C (dose: 1.0 mg/kg/injection, schedule: Q01DX015 (ip), vehicle: water) was 121 % of control. The T/C (dose: 2.0 mg/kg/injection, schedule: Q01DX015 (ip), vehicle: water) was 124 % of control, the T/C (dose: 37.5 mg/kg/injection, schedule: Q01DX001 (ip), vehicle: water) was 177 % of control and 178 % of control and 187 % of control and the T/C (dose: 75.0 mg/kg/injection, schedule: Q01DX001 (ip), vehicle: water) was 265 % of control and 278 % of control and 310 % of control.
In the case of `CN(Cc1cnc2nc(N)nc(N)c2n1)c1ccccc1`, the T/C (dose: 20.0 mg/kg/injection, schedule: Q01DX009 (ip), vehicle: saline with Tween-80) is reported as 97 % of control, the T/C (dose: 40.0 mg/kg/injection, schedule: Q01DX009 (ip), vehicle: saline with Tween-80) is reported as 101 % of control and the T/C (dose: 80.0 mg/kg/injection, schedule: Q01DX009 (ip), vehicle: saline with Tween-80) is reported as 98 % of control.
With `C[Si](C)(CCl)c1ccccc1` the T/C [6] was 107 % of control, the T/C [7] was 105 % of control and the T/C [10] was 100 % of control.
`CSc1nccc(=O)n1C` was tested, and the T/C (dose: 12.5 mg/kg/injection, schedule: Q01DX009 (ip), vehicle: saline) was 96 % of control, the T/C (dose: 25.0 mg/kg/injection, schedule: Q01DX009 (ip), vehicle: saline) was 96 % of control and the T/C (dose: 25.0 mg/kg/injection, schedule: Q04DX003 (ip), vehicle: saline) was 98 % of control. The T/C (dose: 50.0 mg/kg/injection, schedule: Q01DX009 (ip), vehicle: saline) was 101 % of control, the T/C (dose: 50.0 mg/kg/injection, schedule: Q04DX003 (ip), vehicle: saline) was 106 % of control and the T/C [6] was 107 % of control.
With `O=C(COc1ccc(Cl)cc1C(=O)O)NCc1ccc(Cl)cc1` the T/C (dose: 100.0 mg/kg/injection, schedule: Q01DX009 (ip), vehicle: gum acacia) was 92 % of control, the T/C (dose: 200.0 mg/kg/injection, schedule: Q01DX009 (ip), vehicle: gum acacia) was 106 % of control and the T/C (dose: 400.0 mg/kg/injection, schedule: Q01DX009 (ip), vehicle: gum acacia) was 92 % of control.
For `COn1c(=O)c2ccccc2n(C)c1=O`, the T/C (dose: 62.5 mg/kg/injection, schedule: Q01DX009 (ip), vehicle: other) was 96 % of control, the T/C (dose: 125.0 mg/kg/injection, schedule: Q01DX009 (ip), vehicle: other) was 94 % of control and the T/C (dose: 250.0 mg/kg/injection, schedule: Q01DX009 (ip), vehicle: other) was 98 % of control.
